# Test results reported in US20160297833A1, “THIENOPYRIMIDINES AS MKNK1 AND MKNK2 INHIBITORS” (BAYER PHARMA AKTIENGESELLSCHAFT, priority 2013, published 2016).
# Target: T1, human full-length MKNK1 (Homo sapiens, UniProt Q9BUB5, T385D)
# T1 construct: GST (N); purchased Carna Biosciences 02-145; host or cells: insect cells (baculovirus expression system)
# Assay: MKNK1 kinase high ATP assay (TR-FRET)
# Assay type: biochemical
# Conditions: Table 1; MKNK1 kinase high ATP assay, 2 mM ATP; read-out: MKNK1 IC50
# In short: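 Full-length human MKNK1 (T385D) preincubated 15 min at 22 °C with compound in HEPES pH 7.5/MgCl2/DTT buffer; reaction with 2 mM ATP (final) and 0.06 μM biotinylated peptide (final), 30 min at 22 °C.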
# T1 sequence (Q9BUB5 1-424 isoform Q9BUB5-2 T344D): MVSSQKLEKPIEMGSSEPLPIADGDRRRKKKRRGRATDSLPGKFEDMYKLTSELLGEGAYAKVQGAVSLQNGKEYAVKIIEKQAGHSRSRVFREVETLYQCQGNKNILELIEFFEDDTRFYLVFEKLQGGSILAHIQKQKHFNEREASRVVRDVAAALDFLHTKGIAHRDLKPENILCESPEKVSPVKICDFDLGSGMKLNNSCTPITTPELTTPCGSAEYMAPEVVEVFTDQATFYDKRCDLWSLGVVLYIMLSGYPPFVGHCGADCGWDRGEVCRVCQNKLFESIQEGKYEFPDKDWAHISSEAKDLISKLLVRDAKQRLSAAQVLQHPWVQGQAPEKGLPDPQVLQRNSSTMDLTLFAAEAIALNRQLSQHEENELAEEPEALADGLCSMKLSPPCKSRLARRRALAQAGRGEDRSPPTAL
row,SMILES,IC50
1,"C[C@@H]1CN(C(=O)[C@H]2CCc3c(sc4ncnc(Nc5cc6cn[nH]c6cc5F)c34)C2)C[C@@H](C)O1 [Example 224, [(2R,6R)-2,6-Dimethylmorpholin-4-yl]{(7S)-4-[(6-fluoro-1H-indazol-5-yl)amino]-5,6,7,8-tetrahydro[1]benzothieno[2,3-d]pyrimidin-7-yl}methanone]",3.7 nM
2,"C[C@H]1CN(C(=O)[C@H]2CCc3c(sc4ncnc(Nc5cc6cn[nH]c6cc5F)c34)C2)C[C@H](C)O1 [Example 225, [(2S,6S)-2,6-Dimethylmorpholin-4-yl]{(7S)-4-[(6-fluoro-1H-indazol-5-yl)amino]-5,6,7,8-tetrahydro[1]benzothieno[2,3-d]pyrimidin-7-yl}methanone]",8.7 nM
3,"O=C([C@H]1CCc2c(sc3ncnc(Nc4cc5cn[nH]c5cc4F)c23)C1)N1CCOCC1 [Example 226, {(7S)-4-[(6-Fluoro-1H-indazol-5-yl)amino]-5,6,7,8-tetrahydro[1]benzothieno[2,3-d]pyrimidin-7-yl}(morpholin-4-yl)methanone]",7.8 nM
4,"C[C@H]1COCCN1C(=O)[C@H]1CCc2c(sc3ncnc(Nc4cc5cn[nH]c5cc4F)c23)C1 [Example 227, {(7S)-4-[(6-Fluoro-1H-indazol-5-yl)amino]-5,6,7,8-tetrahydro[1]benzothieno[2,3-d]pyrimidin-7-yl}[(3S)-3-methylmorpholin-4-yl]methanone]",7 nM
5,"CN(C)C(=O)[C@H]1CCc2c(sc3ncnc(Nc4cc5cn[nH]c5cc4F)c23)C1 [Example 228, (7S)-4-[(6-Fluoro-1H-indazol-5-yl)amino]-N,N-dimethyl-5,6,7,8-tetrahydro[1]benzothieno[2,3-d]pyrimidine-7-carboxamide]",6.1 nM
6,"C[C@H]1CN(C(=O)[C@H]2CCc3c(sc4ncnc(Nc5cc6cn[nH]c6cc5Cl)c34)C2)C[C@H](C)O1 [Example 229, {(7S)-4-[(6-Chloro-1H-indazol-5-yl)amino]-5,6,7,8-tetrahydro[1]benzothieno[2,3-d]pyrimidin-7-yl}[(2S,6S)-2,6-dimethylmorpholin-4-yl]methanone]",4.3 nM
7,"COCCN(C)C(=O)[C@H]1CCc2c(sc3ncnc(Nc4cc5cn[nH]c5cc4Cl)c23)C1 [Example 230, (7S)-4-[(6-Chloro-1H-indazol-5-yl)amino]-N-(2-methoxyethyl)-N-methyl-5,6,7,8-tetrahydro[1]benzothieno[2,3-d]pyrimidine-7-carboxamide]",2.5 nM
8,"O=C([C@H]1CCc2c(sc3ncnc(Nc4cc5cn[nH]c5cc4Cl)c23)C1)N1CCOCC1 [Example 231, {(7S)-4-[(6-Chloro-1H-indazol-5-yl)amino]-5,6,7,8-tetrahydro[1]benzothieno[2,3-d]pyrimidin-7-yl}(morpholin-4-yl)methanone]",4 nM
9,"C[C@@H]1COCCN1C(=O)[C@H]1CCc2c(sc3ncnc(Nc4cc5cn[nH]c5cc4Br)c23)C1 [Example 232, {(7S)-4-[(6-Bromo-1H-indazol-5-yl)amino]-5,6,7,8-tetrahydro[1]benzothieno[2,3-d]pyrimidin-7-yl}[(3R)-3-methylmorpholin-4-yl]methanone]",5.8 nM
10,"C[C@@H]1CN(C(=O)[C@H]2CCc3c(sc4ncnc(Nc5cc6cn[nH]c6cc5Br)c34)C2)C[C@@H](C)O1 [Example 233, {(7S)-4-[(6-Bromo-1H-indazol-5-yl)amino]-5,6,7,8-tetrahydro[1]benzothieno[2,3-d]pyrimidin-7-yl}[(2R,6R)-2,6-dimethylmorpholin-4-yl]methanone]",2.1 nM
11,"C[C@@H]1CN(C(=O)[C@H]2CCc3c(sc4ncnc(Nc5cc6cn[nH]c6cc5Br)c34)C2)C[C@H](C)O1 [Example 234, {(7S)-4-[(6-Bromo-1H-indazol-5-yl)amino]-5,6,7,8-tetrahydro[1]benzothieno[2,3-d]pyrimidin-7-yl}[(2R,6S)-2,6-dimethylmorpholin-4-yl]methanone]",3.4 nM
12,"C[C@H]1COCCN1C(=O)[C@H]1CCc2c(sc3ncnc(Nc4cc5cn[nH]c5cc4Br)c23)C1 [Example 235, {(7S)-4-[(6-Bromo-1H-indazol-5-yl)amino]-5,6,7,8-tetrahydro[1]benzothieno[2,3-d]pyrimidin-7-yl}[(3S)-3-methylmorpholin-4-yl]methanone]",3.4 nM
13,"C[C@H]1CN(C(=O)[C@H]2CCc3c(sc4ncnc(Nc5cc6cn[nH]c6cc5Br)c34)C2)C[C@H](C)O1 [Example 236, {(7S)-4-[(6-Bromo-1H-indazol-5-yl)amino]-5,6,7,8-tetrahydro[1]benzothieno[2,3-d]pyrimidin-7-yl}[(2S,6S)-2,6-dimethylmorpholin-4-yl]methanone]",14.6 nM
14,"O=C([C@H]1CCc2c(sc3ncnc(Nc4cc5cn[nH]c5cc4Br)c23)C1)N1CCOCC1 [Example 237, {(7S)-4-[(6-Bromo-1H-indazol-5-yl)amino]-5,6,7,8-tetrahydro[1]benzothieno[2,3-d]pyrimidin-7-yl}(morpholin-4-yl)methanone]",2.8 nM
15,"COCCN(C)C(=O)[C@H]1CCc2c(sc3ncnc(Nc4cc5cn[nH]c5cc4Br)c23)C1 [Example 238, (7S)-4-[(6-Bromo-1H-indazol-5-yl)amino]-N-(2-methoxyethyl)-N-methyl-5,6,7,8-tetrahydro[1]benzothieno[2,3-d]pyrimidine-7-carboxamide]",3.8 nM
16,"C[C@H]1CN(C(=O)[C@H]2CCc3c(sc4ncnc(Nc5cc6cn[nH]c6cc5N(C)C)c34)C2)C[C@H](C)O1 [Example 239, [(7S)-4-{[6-(Dimethylamino)-1H-indazol-5-yl]amino}-5,6,7,8-tetrahydro[1]benzothieno[2,3-d]pyrimidin-7-yl][(2S,6S)-2,6-dimethylmorpholin-4-yl]methanone]",0.3 nM
17,"C[C@@H]1CN(C(=O)[C@H]2CCc3c(sc4ncnc(Nc5cc6cn[nH]c6cc5N(C)C)c34)C2)C[C@@H](C)O1 [Example 240, [(7S)-4-{[6-(Dimethylamino)-1H-indazol-5-yl]amino}-5,6,7,8-tetrahydro[1]benzothieno[2,3-d]pyrimidin-7-yl][(2R,6R)-2,6-dimethylmorpholin-4-yl]methanone]",0.2 nM
18,"CN(CCC(F)(F)F)C(=O)[C@H]1CCc2c(sc3ncnc(Nc4cc5cn[nH]c5cc4N(C)C)c23)C1 [Example 241, (7S)-4-{[6-(Dimethylamino)-1H-indazol-5-yl]amino}-N-methyl-N-(3,3,3-trifluoropropyl)-5,6,7,8-tetrahydro[1]benzothieno[2,3-d]pyrimidine-7-carboxamide]",0.2 nM
19,"CN(C)C(=O)[C@H]1CCc2c(sc3ncnc(Nc4cc5cn[nH]c5cc4N(C)CCC(C)(C)O)c23)C1 [Example 242, (7S)-4-({6-[(3-Hydroxy-3-methylbutyl)(methyl)amino]-1H-indazol-5-yl}amino)-N,N-dimethyl-5,6,7,8-tetrahydro[1]benzothieno[2,3-d]pyrimidine-7-carboxamide]",20.3 nM
20,"CN(C)C(=O)[C@H]1CCc2c(sc3ncnc(Nc4cc5cn[nH]c5cc4N(C)CCNC(=O)OC(C)(C)C)c23)C1 [Example 243, tert-butyl {2-[(5-{[(7S)-7-(Dimethylcarbamoyl)-5,6,7,8-tetrahydro[1]benzothieno[2,3-d]pyrimidin-4-yl]amino}-1H-indazol-6-yl)(methyl)amino]ethyl}carbamate]",1.6 nM
21,"CN(C)C(=O)[C@H]1CCc2c(sc3ncnc(Nc4cc5cn[nH]c5cc4NCCNC(=O)OC(C)(C)C)c23)C1 [Example 244, tert-Butyl {2-[(5-{[(7S)-7-(dimethylcarbamoyl)-5,6,7,8-tetrahydro[1]benzothieno[2,3-d]pyrimidin-4-yl]amino}-1H-indazol-6-yl)amino]ethyl}carbamate]",48.3 nM
22,"CN(CCC(F)(F)F)C(=O)[C@H]1CCc2c(sc3ncnc(Nc4cc5cn[nH]c5cc4N4CCCC4)c23)C1 [Example 245, (7S)—N-Methyl-4-{[6-(pyrrolidin-1-yl)-1H-indazol-5-yl]amino}-N-(3,3,3-trifluoropropyl)-5,6,7,8-tetrahydro[1]benzothieno[2,3-d]pyrimidine-7-carboxamide]",0.6 nM
23,"CSc1cc2[nH]ncc2cc1Nc1ncnc2sc3c(c12)CC[C@H](C(=O)N1C[C@H](C)O[C@@H](C)C1)C3 [Example 246, [(2S,6S)-2,6-Dimethylmorpholin-4-yl][(7S)-4-{[6-(methylsulfanyl)-1H-indazol-5-yl]amino}-5,6,7,8-tetrahydro[1]benzothieno[2,3-d]pyrimidin-7-yl]methanone]",5.3 nM
24,"CSc1cc2[nH]ncc2cc1Nc1ncnc2sc3c(c12)CC[C@H](C(=O)N1C[C@@H](C)O[C@H](C)C1)C3 [Example 247, [(2R,6R)-2,6-Dimethylmorpholin-4-yl][(7S)-4-{[6-(methylsulfanyl)-1H-indazol-5-yl]amino}-5,6,7,8-tetrahydro[1]benzothieno[2,3-d]pyrimidin-7-yl]methanone]",0.6 nM
25,"CSc1cc2[nH]ncc2cc1Nc1ncnc2sc3c(c12)CC[C@H](C(=O)N1CCOC[C@H]1C)C3 [Example 248, [(3R)-3-Methylmorpholin-4-yl][(7S)-4-{[6-(methylsulfanyl)-1H-indazol-5-yl]amino}-5,6,7,8-tetrahydro[1]benzothieno[2,3-d]pyrimidin-7-yl]methanone]",2.2 nM
26,"CSc1cc2[nH]ncc2cc1Nc1ncnc2sc3c(c12)CC[C@H](C(=O)N(C)CCC(F)(F)F)C3 [Example 249, (7S)—N-Methyl-4-{[6-(methylsulfanyl)-1H-indazol-5-yl]amino}-N-(3,3,3-trifluoropropyl)-5,6,7,8-tetrahydro[1]benzothieno[2,3-d]pyrimidine-7-carboxamide]",2.3 nM
27,"CSc1cc2[nH]ncc2cc1Nc1ncnc2sc3c(c12)CC[C@H](C(=O)N1CCC1)C3 [Example 250, Azetidin-1-yl[(7S)-4-{[6-(methylsulfanyl)-1H-indazol-5-yl]amino}-5,6,7,8-tetrahydro[1]benzothieno[2,3-d]pyrimidin-7-yl]methanone]",2.8 nM
